Data from patent publication US8962608B2, “Cycloalkylnitrile pyrazole carboxamides as janus kinase inhibitors” (Merck Sharp & Dohme Corp., priority 2011, dated 2015).

How the values were obtained:
[1] = biological target: JAK1 (recombinant purified GST-tagged catalytic domain) (Homo sapiens (Human), UniProt P23458); assay: biochemical;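 further: biochemical assay with HTRF read-out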
[2] = biological target: JAK2 (recombinant purified GST-tagged catalytic domain) (Homo sapiens (Human), UniProt O60674); assay: biochemical;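 further: biochemical JAK kinase assay with HTRF detection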
JAK2 (recombinant purified GST-tagged catalytic domain), sequence (O60674 849-1124): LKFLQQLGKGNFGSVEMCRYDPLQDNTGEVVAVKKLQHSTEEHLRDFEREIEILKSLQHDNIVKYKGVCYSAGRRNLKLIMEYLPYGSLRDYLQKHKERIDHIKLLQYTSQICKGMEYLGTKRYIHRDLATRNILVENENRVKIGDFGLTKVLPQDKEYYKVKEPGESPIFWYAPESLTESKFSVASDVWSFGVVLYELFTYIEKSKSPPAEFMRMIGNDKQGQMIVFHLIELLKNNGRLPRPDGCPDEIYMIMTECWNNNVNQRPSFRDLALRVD

JAK1 (recombinant purified GST-tagged catalytic domain), sequence (P23458 875-1153): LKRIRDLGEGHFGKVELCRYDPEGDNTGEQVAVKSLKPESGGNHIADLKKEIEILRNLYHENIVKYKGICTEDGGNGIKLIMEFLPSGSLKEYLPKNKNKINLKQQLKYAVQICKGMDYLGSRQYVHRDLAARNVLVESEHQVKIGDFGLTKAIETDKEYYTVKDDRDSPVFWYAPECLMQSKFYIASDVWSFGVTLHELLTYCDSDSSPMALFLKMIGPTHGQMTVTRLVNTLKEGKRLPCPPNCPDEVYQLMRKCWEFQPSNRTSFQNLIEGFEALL

| SMILES | IC50 [1] [nM] | IC50 [2] [nM] |
| --- | --- | --- |
| N#C[C@H]1CCCC[C@@H]1n1cc(C(N)=O)c(Nc2ccc(S(=O)(=O)NCc3ccncc3)cc2)n1 (single isomer, unassigned) [Example 17-86, 1-[(1R,2R or 1S,2S)-2-cyanocyclohexyl]-3-({4-[(pyridin-4-ylmethyl)sulfamoyl]phenyl}amino)-1H-pyrazole-4-carboxamide] | 0.25 | 0.95 |
| CC(C)(O)CN[C@H]1CCC(n2cc(C(N)=O)c(Nc3ccc(Cl)cc3)n2)[C@@H](C#N)C1 (single isomer, unassigned) [Example 28-221, 3-[(4-chlorophenyl)amino]-1-{(1S,2S,4S or 1R,2R,4R)-2-cyano-4-[(2-hydroxy-2-methylpropyl)amino]cyclo-hexyl}-1H-pyrazole-4-carboxamide] | 2 | 42 |
| N#C[C@H]1CCCC(F)[C@@H]1n1cc(C(N)=O)c(Nc2ccccc2)n1 (mixture of isomers) [Example 23-1, 1-[(1R,2S and 1S,2R)-2-Cyano-6-fluorocyclohexyl]-3-(phenylamino)-1H-pyrazole-4-carboxamide] | 5 | 60 |
| CN(C)CC1CCC(n2cc(C(N)=O)c(Nc3ccc(F)cc3)n2)[C@H](C#N)C1 (mixture of isomers) [Example 10, 1-((1R,2R and 1S,2S)-2-Cyano-4-((dimethylamino)methyl)cyclohexyl)-3-((4-fluorophenyl)amino)-1H-pyrazole-4-carboxamide] | 11 | 357 |

Second part, the compound after the results:

| IC50 [1] [nM] | IC50 [2] [nM] | SMILES |
| --- | --- | --- |
| 0.35 | 4 | CS(=O)(=O)CCNC1CC[C@H](n2cc(C(N)=O)c(Nc3ccc(S(=O)(=O)C(F)(F)F)cc3)n2)[C@@H](C#N)C1 (single isomer, unassigned) [Example 28-148, 1-[(1S,2S or 1R,2R)-2-cyano-4-{[2-(methylsulfonyl)eth-yl]amino}cyclohexyl]-3-({4-[(trifluoromethyl)sulfon-yl]phenyl}amino)-1H-pyrazole-4-carboxamide] |
| 2 | 242 | N#C[C@@H]1C[C@@H](NCC2CCC2)CC[C@H]1n1cc(C(N)=O)c(Nc2ccc(C(F)(F)F)cc2)n1 (single isomer, unassigned) [Example 30-16, 1-{(1R,2R,4S or 1S,2S,4R)-2-cyano-4-[(cyclobutyl-methyl)amino]cyclohexyl}-3-{[4-(trifluoro-methyl)phenyl]amino}-1H-pyrazole-4-carboxamide] |
| 2 | 18 | N#C[C@H]1CC(N2CC[C@@H](F)C2)CC[C@@H]1n1cc(C(N)=O)c(Nc2ccc(S(=O)(=O)C(F)(F)F)cc2)n1 (single isomer, unassigned) [Example 28-159, 1-{(1S,2S or 1R,2R)-2-cyano-4-[(3R)-3-fluoropyrrolidin-1-yl]cyclohexyl}-3-({4-[(trifluoro-methyl)sulfonyl]phenyl}amino)-1H-pyrazole-4-carboxamide] |
| 0.4 | 7 | N#C[C@H]1CC(NC2CCS(=O)(=O)C2)CC[C@@H]1n1cc(C(N)=O)c(Nc2ccc(S(=O)(=O)C(F)(F)F)cc2)n1 (single isomer, unassigned) [Example 28-153, 1-{(1S,2S or 1R,2R)-2-cyano-4-[(1,1-dioxidotetrahydrothiophen-3-yl)amino]cyclohexyl}-3-({4-[(trifluoromethyl)sulfonyl]phen-yl}amino)-1H-pyrazole-4-carboxamide] |
| 0.1 | 3 | CS(=O)(=O)c1ccc(Nc2nn([C@H]3CC[C@@H](O)C[C@@H]3C#N)cc2C(N)=O)cc1 (single isomer, unassigned) [Example 25-28, 1-[(1S,2S,4R or 1R,2R,4S)-2-cyano-4-hydroxycyclohexyl]-3-{[4-(methylsulfonyl)phenyl]amino}-1H-pyrazole-4-carboxamide] |
